Measurements taken from patent publication US12286425B2, “Herbicidally active bicyclic benzamides” (Bayer Aktiengesellschaft, priority 2018, dated 2025).

How the values were obtained:
Format in all cases: in vivo
AVEFA = assay: Pre-emergence herbicidal action (PE), greenhouse pot test, AVEFA; conditions: pre-emergence (PE); application rate 320; scored visually after about 3 weeks vs untreated controls; 100% = plants have died, 0% = like control plants
Source text: (§1) 1. Pre-emergence herbicidal action and crop plant compatibility (pre-emergence, PE) Seeds of monocotyledonous and dicotyledonous weed plants and crop plants are placed in plastic or organic planting pots and covered with soil. The compounds of the invention, formulated in the form of wettable powders (WP) or as emulsion concentrates (EC), are then applied onto the surface of the covering soil as aqueous suspension or emulsion with addition of 0.5% additive at a water application rate of […] (converted). After the treatment, the pots are placed in a greenhouse and kept under good growth conditions for the trial plants. After about 3 weeks, the effect of the preparations is scored visually in comparison with untreated controls as percentages. The tables below show the herbicidal activity of numerous compounds according to the invention against important harmful plants. For example, 100% activity=the plants have died, 0% activity=like control plants.

SETVI = assay: Pre-emergence herbicidal action (PE), greenhouse pot test, SETVI; conditions: pre-emergence (PE), Setaria viridis, application rate 320, scored visually after about 3 weeks
Source text: as §1

[1] = system: monocotyledonous and dicotyledonous weed plants and crop plants; assay: Pre-emergence herbicidal action and crop plant compatibility (PE), other species and comparison with A-117; conditions: pre-emergence (PE), application rate 320, scored visually after about 3 weeks; for Herbicidal activity ABUTH: Abutilon theophrasti; for Herbicidal activity AMARE: Amaranthus retroflexus; for Herbicidal activity CYPES: Cyperus esculentus; for Herbicidal activity ECHCG: Echinochloa crus-galli; for Herbicidal activity MATIN: Matricaria inodora; for Herbicidal activity POLCO: Polygonum convolvulus; for Herbicidal activity STEME: Stellaria media; for Herbicidal activity VIOTR: Viola tricolor
Source text: as §1
(§2) In a comparative experiment, by way of example, the herbicidal activity of compound No. 2-13 according to the invention was compared to that of compound No. A-117 known from WO 2013/076315 A2.

[2] = system: monocotyledonous and dicotyledonous weeds and crop plants; assay: Post-emergence herbicidal action and crop plant compatibility (PO), including comparison with A-117; conditions: post-emergence (PO), application rate 80, rated visually after about 3 weeks; for Herbicidal activity ABUTH: Abutilon theophrasti; for Herbicidal activity AMARE: Amaranthus retroflexus; for Herbicidal activity CYPES: Cyperus esculentus; for Herbicidal activity ECHCG: Echinochloa crus-galli; for Herbicidal activity PHBPU: Ipomoea purpurea; for Herbicidal activity SETVI: Setaria viridis; for Herbicidal activity STEME: Stellaria media; for Herbicidal activity VIOTR: Viola tricolor
Method: 2. Post-emergence herbicidal action and crop plant compatibility (post-emergence, PO) Seeds of monocotyledonous and dicotyledonous weeds and crop plants are placed in sandy loam in plastic or organic planting pots, covered with soil and cultivated in a greenhouse under controlled growth conditions. 2 to 3 weeks after sowing, the test plants are treated at the one-leaf stage. The compounds of the invention, formulated in the form of wettable powders (WP) or as emulsion concentrates (EC), are then sprayed onto the green parts of the plants as aqueous suspension or emulsion with addition of 0.5% additive at a water application rate of […] (converted). After the test plants had been kept in the greenhouse under optimum growth conditions for about 3 weeks, the activity of the preparations is rated visually in comparison to untreated controls. The tables below show the herbicidal activity of numerous compounds according to the invention against important harmful plants. For example, 100% activity=the plants have died, 0% activity=like control plants.
as §2

Structure (SMILES)	herbicidal activity AVEFA (AVEFA) [%]	Herbicidal activity SETVI (SETVI) [%]	Herbicidal activity ABUTH [1] [%]	Herbicidal activity AMARE [1] [%]	Herbicidal activity CYPES [1] [%]	Herbicidal activity ECHCG [1] [%]	Herbicidal activity MATIN [1] [%]	Herbicidal activity POLCO [1] [%]	Herbicidal activity STEME [1] [%]	Herbicidal activity VIOTR [1] [%]	Herbicidal activity ABUTH [2] [%]	Herbicidal activity AMARE [2] [%]	Herbicidal activity CYPES [2] [%]	Herbicidal activity ECHCG [2] [%]	Herbicidal activity PHBPU [2] [%]	Herbicidal activity SETVI [2] [%]	Herbicidal activity STEME [2] [%]	Herbicidal activity VIOTR [2] [%]	other results
CCn1nnnc1NC(=O)c1ccc(C(F)(F)F)c2c1OCC[S+]2[O-] (stereo not drawn) [Example 3-16]	100	100	100	100	100	100	100	100	100	100	100	100	90	90	100	90	100	100	herbicidal activity AVEFA ([2]; Avena fatua): 100%; Herbicidal activity POLCO ([2]; Polygonum convolvulus): 90%; Herbicidal activity VERPE ([2]; Veronica persica): 100%
CCn1nnnc1NC(=O)c1ccc(C(F)(F)F)c2c1OCCS2(=O)=O [Example 3-19]	90	100	100	100	100	100	100	90	90	100	90	90	80	100	90	90	100	100	–
